Experimental data reported in ChEMBL document CHEMBL1773045, “Conjugate (MTC-220) of muramyl dipeptide analogue and paclitaxel prevents both tumor growth and metastasis in mice” (J Med Chem, 2011).
Active and inactive are the calls of the source. The calls are words filed in the database; no cut-off is given here.

What was measured:
MDA-MB-231 [1] = assay: Growth inhibition of human MDA-MB-231 cells after 48 hrs by sulforhodamine B assay; assay type: functional; settings: MDA-MB-231, 48 h
SR = assay: Growth inhibition of human SR cells after 48 hrs by sulforhodamine B assay; assay type: functional
NCI-H460 [2] = assay: Antitumor activity against human H460 cells xenografted in nu/nu BALB/c mouse assessed as tumor growth inhibition at 5 mg/kg, ip qd for 24 days measured on day 25 relative to control; assay type: functional; settings: route intraperitoneal, read-out: GI
A2780 = assay: Cytotoxicity against human A2780 cells after 72 hrs by MTT assay; assay type: functional, cell-based
HL-60(TB) = assay: Growth inhibition of human HL-60(TB) cells after 48 hrs by sulforhodamine B assay; assay type: functional; settings: HL-60, 48 h
Mus musculus [3] = assay: Toxicity in human cancer cells xenografted in nu/nu BALB/c mouse assessed as mortality at 5 to 30 mg/kg, ip qd for 24 days; assay type: organism-based, Cancer cell lines; parameters: dose 5-30 mg/kg, route intraperitoneal; settings: in vivo, 576 h
[4] = Antitumor activity against human ES2 cells xenografted in nu/nu BALB/c mouse assessed as tumor growth inhibition at 30 mg/kg, ip qd for 12 days measured on day 21 relative to control; assay type: functional; settings: ES-2, ip, route intraperitoneal, read-out: GI
PC-3M = assay: Cytotoxicity against human PC3M cells after 72 hrs by MTT assay; assay type: functional, cell-based
NCI-H460 [5] = assay: Antitumor activity against human H460 cells xenografted in nu/nu BALB/c mouse assessed as tumor growth inhibition at 10 mg/kg, ip qd for 24 days measured on day 25 relative to control; assay type: functional; settings: route intraperitoneal, read-out: GI
[6] = system: Lewis lung carcinoma cell line; assay: Antimetastatic activity against mouse LLC cells xenografted in C57BL/6 mouse assessed as inhibition of lung metastasis at 10 mg/kg, ip qd for 15 days relative to control; assay type: functional; settings: 360 h, route intraperitoneal, read-out: GI
CCRF-CEM = assay: Growth inhibition of human CCRF-CEM cells after 48 hrs by sulforhodamine B assay; assay type: functional
[7] = Growth inhibition of human Hs 578T cells after 48 hrs by sulforhodamine B assay; assay type: functional
HCT-116 = assay: Growth inhibition of human HCT116 cells after 48 hrs by sulforhodamine B assay; assay type: functional; settings: HCT-116, 48 h
LOX IMVI = assay: Growth inhibition of human LOXIMVI cells after 48 hrs by sulforhodamine B assay; assay type: functional
OVCAR-5 = assay: Growth inhibition of human OVCAR5 cells after 48 hrs by sulforhodamine B assay; assay type: functional; settings: OVCAR-5, 48 h
HT-29 = assay: Growth inhibition of human HT-29 cells after 48 hrs by sulforhodamine B assay; assay type: functional; settings: HT-29, 48 h
4T1 [8] = assay: Antitumor activity against mouse 4T1 cells xenografted in […] mouse assessed as tumor growth inhibition at 10 mg/kg, ip qd for 28 days relative to control; assay type: functional; settings: 4T1, ip, 672 h, route intraperitoneal, read-out: GI
SK-MEL-2 = assay: Growth inhibition of human SK-MEL-2 cells after 48 hrs by sulforhodamine B assay; assay type: functional; settings: SK-MEL-2, 48 h
MDA-MB-231 [9] = assay: Antitumor activity against human MDA-MB-231 cells xenografted in nu/nu BALB/c mouse assessed as tumor growth inhibition at 15 mg/kg, ip qd for 24 days measured on day 25 relative to control; assay type: functional; settings: MDA-MB-231, ip, route intraperitoneal, read-out: GI
OVCAR-3 = assay: Growth inhibition of human OVCAR3 cells after 48 hrs by sulforhodamine B assay; assay type: functional; settings: OVCAR-3, 48 h
4T1 [10] = assay: Antitumor activity against mouse 4T1 cells xenografted in […] mouse assessed as tumor growth inhibition at 2.5 mg/kg, ip qd for 28 days relative to control; assay type: functional; settings: 4T1, ip, 672 h, route intraperitoneal, read-out: GI
KM12 = assay: Growth inhibition of human KM12 cells after 48 hrs by sulforhodamine B assay; assay type: functional; settings: KM12, 48 h
Mus musculus [11] = assay: Antimetastatic activity against mouse 4T1 cells xenografted in BALB/c mouse assessed as reduction of myeloid derived suppressor cells accumulation in spleen at 5 mg/kg, ip qd for 23 days by flow cytometry analysis relative to control; assay type: functional; parameters: scale not given: the % may be the effect or the level left; settings: route intraperitoneal
KB = assay: Cytotoxicity against human KB cells after 72 hrs by MTT assay; assay type: functional, cell-based
MCF7 [12] = assay: Antitumor activity against human MCF7 cells xenografted in nu/nu BALB/c mouse assessed as tumor growth inhibition at 30 mg/kg, ip qd for 12 days measured on day 36 relative to control; assay type: functional; settings: route intraperitoneal, read-out: GI
MCF7 [13] = assay: Growth inhibition of human MCF7 cells after 48 hrs by sulforhodamine B assay; assay type: functional; settings: MCF7, 48 h
Mus musculus [14] = assay: Toxicity in ICR mouse assessed as mortality at 112.5 mg/kg, iv; assay type: organism-based; parameters: dose 112.5 mg/kg, route intravenous; settings: in vivo
SK-OV-3 = assay: Growth inhibition of human SKOV3 cells after 48 hrs by sulforhodamine B assay; assay type: functional; settings: SK-OV-3, 48 h
K562 = assay: Growth inhibition of human K562 cells after 48 hrs by sulforhodamine B assay; assay type: functional; settings: K562, 48 h
SNB-19 = assay: Growth inhibition of human SNB19 cells after 48 hrs by sulforhodamine B assay; assay type: functional; settings: SNB-19, 48 h
Mus musculus [15] = assay: Antimetastatic activity against mouse 4T1 cells xenografted in BALB/c mouse assessed as reduction of CCL2 mRNA expression in tumor at 5 mg/kg, ip qd for 23 days by RT-PCR analysis; assay type: functional, organism-based; parameters: dose 5 mg/kg
4T1 [16] = assay: Antitumor activity against mouse 4T1 cells xenografted in […] mouse assessed as tumor growth inhibition at 5 mg/kg, ip qd for 28 days relative to control; assay type: functional; settings: 4T1, ip, 672 h, route intraperitoneal, read-out: GI
DU-145 = assay: Growth inhibition of human DU145 cells after 48 hrs by sulforhodamine B assay; assay type: functional; settings: DU-145, 48 h
MDA-MB-231 [17] = assay: Antitumor activity against human MDA-MB-231 cells xenografted in nu/nu BALB/c mouse assessed as tumor growth inhibition at 30 mg/kg, ip qd for 12 days measured on day 25 relative to control; assay type: functional; settings: MDA-MB-231, ip, route intraperitoneal, read-out: GI
U-251 = assay: Growth inhibition of human U251 cells after 48 hrs by sulforhodamine B assay; assay type: functional; settings: U-251, 48 h
OVCAR-4 = assay: Growth inhibition of human OVCAR4 cells after 48 hrs by sulforhodamine B assay; assay type: functional; settings: OVCAR-4, 48 h
ACHN = assay: Growth inhibition of human ACHN cells after 48 hrs by sulforhodamine B assay; assay type: functional
COLO 205 = assay: Growth inhibition of human COLO205 cells after 48 hrs by sulforhodamine B assay; assay type: functional; settings: COLO 205, 48 h
HCC 2998 = assay: Growth inhibition of human HCC2998 cells after 48 hrs by sulforhodamine B assay; assay type: functional; settings: HCC 2998, 48 h
SF-268 = assay: Growth inhibition of human SF268 cells after 48 hrs by sulforhodamine B assay; assay type: functional; settings: SF-268, 48 h
BT-549 = assay: Growth inhibition of human BT549 cells after 48 hrs by sulforhodamine B assay; assay type: functional; settings: BT-549, 48 h
A549 = assay: Growth inhibition of human A549 cells after 48 hrs by sulforhodamine B assay; assay type: functional; settings: A549, 48 h
A-431 = assay: Cytotoxicity against human A431 cells after 72 hrs by MTT assay; assay type: functional, cell-based

Question: For `CC(=O)O[C@H]1C(=O)[C@@]2(C)[C@H]([C@H](OC(=O)c3ccccc3)[C@]3(O)C[C@H](OC(=O)[C@H](OC(=O)CCC(=O)NCCCC[C@H](NC(=O)CC[C@H](NC(=O)[C@H](C)NC(=O)/C=C/c4ccc(Cl)cc4)C(N)=O)C(N)=O)[C@H](NC(=O)c4ccccc4)c4ccccc4)C(C)=C1C3(C)C)[C@]1(OC(C)=O)CO[C@@H]1C[C@@H]2O`, which GI50 (MDA-MB-231 [1]) is on record?
Answer: < 10 nM

Question: And the GI50 (SR)?
Answer: < 10 nM

Question: What about the inhibition in vivo at 5 mg/kg (NCI-H460 [2]) of the same molecule?
Answer: 2.15%

Question: What about the Activity (A2780) of the same molecule?
Answer: Active

Question: And the GI50 (HL-60(TB))?
Answer: < 10 nM

Question: And the Activity (Mus musculus [3])?
Answer: Non-toxic

Question: And the inhibition in vivo at 30 mg/kg [4]?
Answer: 36.4%

Question: What about the Activity (PC-3M) of the same molecule?
Answer: Active

Question: What about the inhibition in vivo at 10 mg/kg (NCI-H460 [5]) of the same molecule?
Answer: 17.3%

Question: And the inhibition in vivo at 10 mg/kg [6]?
Answer: 47.4%

Question: And the GI50 (CCRF-CEM)?
Answer: < 10 nM

Question: What about the GI50 [7] of the same molecule?
Answer: < 10 nM

Question: What about the GI50 (HCT-116) of the same molecule?
Answer: < 10 nM

Question: And the GI50 (LOX IMVI)?
Answer: < 10 nM

Question: What about the GI50 (OVCAR-5) of the same molecule?
Answer: < 10 nM

Question: And the GI50 (HT-29)?
Answer: < 10 nM

Question: What about the inhibition in vivo at 10 mg/kg (4T1 [8]) of the same molecule?
Answer: 45.9%

Question: And the GI50 (SK-MEL-2)?
Answer: < 10 nM

Question: What about the inhibition in vivo at 15 mg/kg (MDA-MB-231 [9]) of the same molecule?
Answer: 57.4%

Question: And the GI50 (OVCAR-3)?
Answer: < 10 nM

Question: And the inhibition in vivo at 2.5 mg/kg (4T1 [10])?
Answer: 27.4%

Question: And the GI50 (KM12)?
Answer: < 10 nM

Question: What about the Activity (Mus musculus [11]) of the same molecule?
Answer: 22%

Question: And the Activity (KB)?
Answer: Active

Question: And the inhibition in vivo at 30 mg/kg (MCF7 [12])?
Answer: 100%

Question: What about the GI50 (MCF7 [13]) of the same molecule?
Answer: < 10 nM

Question: And the Activity (Mus musculus [14])?
Answer: Non-toxic

Question: What about the GI50 (SK-OV-3) of the same molecule?
Answer: < 10 nM

Question: What about the GI50 (K562) of the same molecule?
Answer: < 10 nM

Question: What about the GI50 (SNB-19) of the same molecule?
Answer: < 10 nM

Question: What about the Activity (Mus musculus [15]) of the same molecule?
Answer: Active

Question: And the inhibition in vivo at 5 mg/kg (4T1 [16])?
Answer: 33.5%

Question: And the GI50 (DU-145)?
Answer: < 10 nM

Question: And the inhibition in vivo at 30 mg/kg (MDA-MB-231 [17])?
Answer: 87%

Question: And the GI50 (U-251)?
Answer: < 10 nM

Question: What about the GI50 (OVCAR-4) of the same molecule?
Answer: < 10 nM

Question: What about the GI50 (ACHN) of the same molecule?
Answer: < 10 nM

Question: And the GI50 (COLO 205)?
Answer: < 10 nM

Question: And the GI50 (HCC 2998)?
Answer: < 10 nM

Question: What about the GI50 (SF-268) of the same molecule?
Answer: < 10 nM

Question: What about the GI50 (BT-549) of the same molecule?
Answer: < 10 nM

Question: And the GI50 (A549)?
Answer: < 10 nM

Question: What about the Activity (A-431) of the same molecule?
Answer: Active
